Assay results reported in patent US10294202B2, “Pyrrolidinones as herbicides” (FMC Corporation, priority 2013, dated 2019).

What was measured:
giant foxtail = experiment: Test A pre-/postemergence herbicide test; format: in vivo, Setaria faberii
How it was run: (§1)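 Scoring was visual, relative to untreated controls, on a 0–100 scale after about 10 greenhouse days. Preemergence treatment used a directed soil spray over seeded loam/sand; postemergence treatment targeted one- to two-leaf plants of 2–10 cm.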

crabgrass, large = experiment: Test A pre-/postemergence herbicide test; format: in vivo, Digitaria sanguinalis
How it was run: as §1

ducksalad = experiment: Test B flooded paddy test; format: in vivo, Heteranthera limosa; details: 250 g ai/ha, Flood; scale of 0 to 100 where 0 is no effect and 100 is complete control
How it was run: (§2)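 Scoring: visual, compared with untreated controls, 0 = no effect through 100 = complete control, taken 13 to 15 days after treatment in the greenhouse. Compounds had been added to paddy water over soil flooded 3 cm deep at the plants' 2-leaf stage.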

barnyardgrass [1] = experiment: Test B flooded paddy test; format: in vivo, Echinochloa crus-galli; details: 250 g ai/ha, Flood; scale of 0 to 100 where 0 is no effect and 100 is complete control
How it was run: as §2

sedge, umbrella = experiment: Test B flooded paddy test; format: in vivo, Cyperus difformis; details: 250 g ai/ha, Flood; scale of 0 to 100 where 0 is no effect and 100 is complete control
How it was run: as §2

velvetleaf = experiment: Test A pre-/postemergence herbicide test; format: in vivo, Abutilon theophrasti
How it was run: as §1

corn = experiment: Test A pre-/postemergence herbicide test; format: in vivo, Zea mays
How it was run: as §1

rice = experiment: Test B flooded paddy test; format: in vivo, Oryza sativa; details: 250 g ai/ha, Flood; scale of 0 to 100 where 0 is no effect and 100 is complete control
How it was run: as §2

barnyardgrass [2] = experiment: Test A pre-/postemergence herbicide test; format: in vivo, Echinochloa crus-galli
How it was run: as §1

morningglory = experiment: Test A pre-/postemergence herbicide test; format: in vivo, Ipomoea spp.
How it was run: as §1

pigweed = experiment: Test A pre-/postemergence herbicide test; format: in vivo, Amaranthus retroflexus
How it was run: as §1

wheat = experiment: Test A pre-/postemergence herbicide test; format: in vivo, Triticum aestivum
How it was run: as §1

[3] = Postemergence, 125 g ai/ha, 0 to 100 scale, 0 no effect, 100 complete control
[4] = Postemergence, 500 g ai/ha, 0 to 100 scale (0 no effect, 100 complete control)
[5] = Preemergence, 125 g ai/ha, visual rating on 0 to 100 scale (0 no effect, 100 complete control)
[6] = preemergence, 500 g ai/ha, 0 to 100 scale
[7] = preemergence, 500 g ai/ha, 0 to 100 scale (0 no effect, 100 complete control)
[8] = Postemergence, 1000 g ai/ha, 0 to 100 scale (0 no effect, 100 complete control)
[9] = Preemergence, 1000 g ai/ha, visual rating on 0 to 100 scale (0 no effect, 100 complete control), approx. 10 days

| SMILES | Plant response rating, Foxtail, Giant (giant foxtail; [3]) | Plant response rating, Foxtail, Giant (giant foxtail; [4]) | Foxtail, Giant plant response rating (giant foxtail; [5]) | Plant response rating, Foxtail, Giant (giant foxtail; [6]) | Plant response rating, Crabgrass, Large (crabgrass, large; [3]) | Plant response rating, Crabgrass, Large (crabgrass, large; [4]) | Crabgrass, Large plant response rating (crabgrass, large; [5]) | Plant response rating, Crabgrass, Large (crabgrass, large; [6]) | Plant response rating, Ducksalad (ducksalad) | Plant response rating, Barnyardgrass (barnyardgrass [1]) | Plant response rating, Sedge, Umbrella (sedge, umbrella) | Plant response rating, Velvetleaf (velvetleaf; [3]) | Plant response rating, Velvetleaf (velvetleaf; [4]) | Velvetleaf plant response rating (velvetleaf; [5]) | Plant response rating, Velvetleaf (velvetleaf; [6]) | Corn plant response rating (corn; [5]) | Plant response rating, Corn (corn; [6]) | Plant response rating, Rice (rice) | Plant response rating, Barnyardgrass (barnyardgrass [2]; [3]) | Plant response rating, Barnyardgrass (barnyardgrass [2]; [4]) | other results |
| --- | --- | --- | --- | --- | --- | --- | --- | --- | --- | --- | --- | --- | --- | --- | --- | --- | --- | --- | --- | --- | --- |
| O=C1NCC(c2ccc(Cl)nc2)C1C(=O)Nc1ccccc1C(F)(F)F (stereo not shown) [Compound 42] | 0 | 20 | 20 | 80 | 0 | 70 | 80 | 90 | 60 | 0 | 0 | 30 | 50 | 0 | 0 | 0 | 0 | 0 | 0 | 40 | Plant response rating, Corn (corn; [3]): 0; Plant response rating, Corn (corn; [4]): 0; Barnyardgrass plant response rating (barnyardgrass [2]; [5]): 0; Plant response rating, Barnyardgrass (barnyardgrass [2]; [7]): 60; Plant response rating, Morningglory (morningglory; [3]): 0; Plant response rating, Morningglory (morningglory; [4]): 0; Plant response rating, Pigweed (pigweed; [3]): 0; Plant response rating, Pigweed (pigweed; [4]): 0; Pigweed plant response rating (pigweed; [5]): 0; Plant response rating, Pigweed (pigweed; [6]): 30; Plant response rating, Wheat (wheat; [3]): 0; Plant response rating, Wheat (wheat; [4]): 0; Wheat plant response rating (wheat; [5]): 0; Plant response rating, Wheat (wheat; [6]): 0 |
| CS(=O)(=O)c1ccccc1NC(=O)C1C(=O)NCC1c1ccc(Cl)c(Cl)c1 (stereo not shown) [Compound 43] |  |  |  |  |  |  |  |  | 0 | 0 | 0 |  |  |  |  |  |  | 0 |  |  | Plant response rating, Foxtail, Giant (giant foxtail; [8]): 50; Plant response rating, Foxtail, Giant (giant foxtail; [9]): 80; Plant response rating, Crabgrass, Large (crabgrass, large; [8]): 20; Plant response rating, Crabgrass, Large (crabgrass, large; [9]): 90; Plant response rating, Velvetleaf (velvetleaf; [8]): 30; Plant response rating, Velvetleaf (velvetleaf; [9]): 0; Plant response rating, Corn (corn; [8]): 0; Plant response rating, Corn (corn; [9]): 0; Plant response rating, Barnyardgrass (barnyardgrass [2]; [8]): 40; Plant response rating, Barnyardgrass (barnyardgrass [2]; [9]): 20; Plant response rating, Morningglory (morningglory; [8]): 10; Plant response rating, Morningglory (morningglory; [9]): 0; Plant response rating, Pigweed (pigweed; [8]): 20; Plant response rating, Pigweed (pigweed; [9]): 0; Plant response rating, Wheat (wheat; [8]): 0; Plant response rating, Wheat (wheat; [9]): 0 |
| COc1ncccc1NC(=O)C1C(=O)NCC1c1ccc(F)c(F)c1 (stereo not shown) [Compound 46] | 0 | 40 | 40 | 80 | 30 | 60 | 70 | 90 | 0 | 0 | 0 | 0 | 0 | 0 | 0 | 0 | 0 | 0 | 0 | 0 | Barnyardgrass plant response rating (barnyardgrass [2]; [5]): 0; Plant response rating, Barnyardgrass (barnyardgrass [2]; [7]): 50; Plant response rating, Morningglory (morningglory; [3]): 0; Plant response rating, Morningglory (morningglory; [4]): 0; Morningglory plant response rating (morningglory; [5]): 0; Plant response rating, Morningglory (morningglory; [6]): 0; Plant response rating, Pigweed (pigweed; [3]): 0; Plant response rating, Pigweed (pigweed; [4]): 0; Pigweed plant response rating (pigweed; [5]): 0; Plant response rating, Pigweed (pigweed; [6]): 0; Plant response rating, Wheat (wheat; [3]): 0; Plant response rating, Wheat (wheat; [4]): 0; Wheat plant response rating (wheat; [5]): 0; Plant response rating, Wheat (wheat; [6]): 0 |
| O=C1NCC(c2ccc(F)c(F)c2)C1C(=O)Nc1ccccc1Br (stereo not shown) [Compound 55] | 70 | 80 | 70 | 90 | 80 | 80 | 80 | 90 | 75 | 50 | 70 | 0 | 0 | 0 | 0 | 0 | 0 | 50 | 30 | 90 | Plant response rating, Corn (corn; [3]): 0; Plant response rating, Corn (corn; [4]): 0; Barnyardgrass plant response rating (barnyardgrass [2]; [5]): 20; Plant response rating, Barnyardgrass (barnyardgrass [2]; [7]): 80; Plant response rating, Morningglory (morningglory; [3]): 0; Plant response rating, Morningglory (morningglory; [4]): 0; Morningglory plant response rating (morningglory; [5]): 0; Plant response rating, Morningglory (morningglory; [6]): 0; Plant response rating, Pigweed (pigweed; [3]): 0; Plant response rating, Pigweed (pigweed; [4]): 0; Pigweed plant response rating (pigweed; [5]): 0; Plant response rating, Pigweed (pigweed; [6]): 0; Plant response rating, Wheat (wheat; [3]): 0; Plant response rating, Wheat (wheat; [4]): 0; Wheat plant response rating (wheat; [5]): 0; Plant response rating, Wheat (wheat; [6]): 0 |
| O=C1NCC(c2ccc(F)c(F)c2)C1C(=O)Nc1cccc2c1OC(F)(F)O2 (stereo not shown) [Compound 57] | 50 | 60 | 60 | 80 | 50 | 70 | 80 | 90 | 0 | 0 | 0 | 0 | 0 | 0 | 0 | 0 | 0 | 0 | 70 | 80 | Plant response rating, Corn (corn; [3]): 0; Plant response rating, Corn (corn; [4]): 0; Barnyardgrass plant response rating (barnyardgrass [2]; [5]): 40; Plant response rating, Barnyardgrass (barnyardgrass [2]; [7]): 80; Plant response rating, Morningglory (morningglory; [3]): 0; Plant response rating, Morningglory (morningglory; [4]): 0; Morningglory plant response rating (morningglory; [5]): 0; Plant response rating, Morningglory (morningglory; [6]): 0; Plant response rating, Pigweed (pigweed; [3]): 0; Plant response rating, Pigweed (pigweed; [4]): 0; Pigweed plant response rating (pigweed; [5]): 0; Plant response rating, Pigweed (pigweed; [6]): 0; Plant response rating, Wheat (wheat; [3]): 0; Plant response rating, Wheat (wheat; [4]): 0; Wheat plant response rating (wheat; [5]): 0; Plant response rating, Wheat (wheat; [6]): 0 |
